Data published in patent US4426382A, “4-Amino-6,7-dimethoxy-2-piperazinylquinazoline derivatives, their preparation and use” (Sankyo Company Limited, priority 1980, dated 1984).
Where a name gives a salt, the structure may show the parent alone.

Tested on: spontaneously hypertensive rats
Assay: antihypertensive activity: blood pressure after oral administration to conscious spontaneously hypertensive rats
Format: in vivo
Conditions: male spontaneously hypertensive rats
Method: The animals used in this test were 15 week old male spontaneously hypertensive rats. 3-5 rats were used to test each concentration of each compound. Each animal was treated as follows. […] A polyethylene cannula was then inserted into the abdominal aorta by the method of Weeks and Jones [J. R. Weeks and J. A. Jones, Proc. Soc. […] The other end of the cannula, leading out of the body, was fixed to the neck. One week after the operation, when the animal had recovered from post-operative invasion, this end of the cannula was connected to an apparatus to measure the blood pressure and heart beat directly without the need for any further anesthesia or restraint. The haemomanometer used was an improved type of that originated by Laffan et al. [P. J. Laffan, A. Peterson, S. W. Hitch and C.
The compound under test was suspended at the desired concentration in a 0.3% w/v aqueous solution of carboxymethylcellulose and administered orally in a volume of 2 ml/kg body weight. […] After administration of the sample, the blood pressure and heart beat of each animal were measured for 24 hours at 15 minute intervals.
For purposes of comparison, the same experiment was carried out with various concentrations of the known hypotensive agent, prazosin, in the form of its hydrochloride.
Δmax =Maximum change in blood pressure (mm/Hg) after administration of the compound under test;
Tmax =Time (in hours) after administration of the compound under test required for the blood pressure to obtain a maximum change;
T0.5 max =Time (in hours) after administration of the compound under test for the blood pressure to return to one-half of its maximum value.

SMILES	T0.5 max, time after administration for the blood pressure to return to one-half of its maximum value (dose 3 mg/kg oral) [h]	Tmax, time after administration required for the blood pressure to obtain a maximum change (dose 3 mg/kg oral) [h]	Δmax, maximum change in blood pressure after administration (dose 3 mg/kg oral) [mmHg]	T0.5 max, time after administration for the blood pressure to return to one-half of its maximum value (dose 30 mg/kg oral) [h]	Tmax, time after administration required for the blood pressure to obtain a maximum change (dose 30 mg/kg oral) [h]	Δmax, maximum change in blood pressure after administration (dose 30 mg/kg oral) [mmHg]	also measured
COc1cc2nc(N3CCN(C(=O)C=C4CCCCC4)CC3)nc(N)c2cc1OC [31 hydrochloride hydrate]	10	1 to 2	-25	14	1 to 2	-40	
CCC=CCC(=O)N1CCN(c2nc(N)c3cc(OC)c(OC)cc3n2)CC1 [Compound No. 7, 4-Amino-2-[4-(3-hexenoyl)-1-piperazinyl]-6,7-dimethoxyquinazoline]	7	0.5	-20	15	0.5	-25	
COc1cc2nc(N3CCN(C(=O)C=C4CCCC4)CC3)nc(N)c2cc1OC [32 hydrochloride hydrate]	10	1 to 2	-40	7	1 to 2	-80	
COc1cc2nc(N3CCN(C(=O)C(C)Oc4ccccc4)CC3)nc(N)c2cc1OC (stereo not drawn) [25 hydrochloride hemihydrate]	14	1	-70				T0.5 max, time after administration for the blood pressure to return to one-half of its maximum value (dose 1 mg/kg oral): 7 h; Tmax, time after administration required for the blood pressure to obtain a maximum change (dose 1 mg/kg oral): 1 h; Δmax, maximum change in blood pressure after administration (dose 1 mg/kg oral): -40 mmHg
COc1cc2nc(N3CCN(C(=O)c4ccc(OCc5ccccc5)c(OC)c4)CC3)nc(N)c2cc1OC [94 hydrochloride hemihydrate]				7	5	-28	
C=CCCC(=O)N1CCN(c2nc(N)c3cc(OC)c(OC)cc3n2)CC1 [Compound No. 6, 4-Amino-6,7-dimethoxy-2-[4-(4-pentenoyl)-1-piperazinyl]quinazoline]	8	0.5	-40	13	0.5	-65	
COc1cc2nc(N3CCN(C(=O)c4ccc(OC(C)c5ccccc5)cc4)CC3)nc(N)c2cc1OC (stereo not drawn) [103 hydrochloride sesquihydrate]				13	5 to 6	-41	T0.5 max, time after administration for the blood pressure to return to one-half of its maximum value (dose 10 mg/kg oral): 9.5 h; Tmax, time after administration required for the blood pressure to obtain a maximum change (dose 10 mg/kg oral): 5 to 6 h; Δmax, maximum change in blood pressure after administration (dose 10 mg/kg oral): -30 mmHg
CCC=CC(=O)N1CCN(c2nc(N)c3cc(OC)c(OC)cc3n2)CC1 [Compound No. 5, 4-Amino-6,7-dimethoxy-2-[4-(2-pentenoyl)-1-piperazinyl]quinazoline]		0.5	-40				T0.5 max, time after administration for the blood pressure to return to one-half of its maximum value (dose 3 mg/kg oral, 3 mg/kg): 9 h; T0.5 max, time after administration for the blood pressure to return to one-half of its maximum value (dose 30 mg/kg oral, 30 mg/kg): 11.5 h; Tmax, time after administration required for the blood pressure to obtain a maximum change (dose 30 mg/kg oral, 30 mg/kg): 0.5 h; Δmax, maximum change in blood pressure after administration (dose 30 mg/kg oral, 30 mg/kg): -50 mmHg
COc1cc2nc(N3CCN(C(=O)C4(c5ccccc5)CC4)CC3)nc(N)c2cc1OC [33 hydrochloride hydrate]				8.5	1	-50	
